Patent US20260056197A1, “METHOD FOR MEASURING TRACP-5b AND KIT THEREFOR” (NITTO BOSEKI CO., LTD., priority 2023, published 2026)

Assays:
Format in all cases: biochemical
[1] = test system: TRACP-5b; assay: Test 2: study of concentration of TRACP-5a inhibitor (enzyme method); conditions: Table 8, 7 U/L TRACP-5b solution, control 6.9
Experimental: (§1) For the measurement, Hitachi automatic analyzer model 7180 (Hitachi High-Tech Corporation) was used. To 16 μL of the 7 U/L TRACP-5b solution, or the 7 U/L TRACP-5a solution or the 8 U/L TRACP-5a solution, 200 μL of the chromogenic substrate solution containing an evaluation compound was added to start an enzymatic reaction, and the absorbance (primary wavelength: 405 nm, secondary wavelength: 480 nm) was measured for 516.0 seconds starting at 340.5 seconds after the beginning of the enzymatic reaction. The amount of absorbance change per minute (the amount of absorbance change per unit time during the enzymatic reaction) was determined from the absorbance change between both the time points.
(§2) On the other hand, serial dilutions of a TRACP-5b reference solution with known activity in a 22 mM MES buffer solution (pH 5.0) as well as a 22 mM MES buffer solution (pH 5.0) as a blank were prepared; the serial dilutions of the TRACP-5b reference solution were measured using the chromogenic substrate solution containing each evaluation compound, thereby producing a standard straight line for the TRACP-5b. In addition, the serial dilutions of the TRACP-5b reference solution were measured using the chromogenic substrate solution without any evaluation compound in the same manner, thereby producing a standard straight line for the TRACP-5b. The chromogenic substrate solution containing each evaluation compound and the chromogenic substrate solution without any evaluation compound were used to measure the TRACP-5b solution and the TRACP-5a solution, and these standard straight lines were used to calculate activity values from the obtained amounts of absorbance change.
(§3) For dextran sulfate sodium (5K), dextran sulfate sodium (50K), sodium polyvinyl sulfonate (5K), and sodium vinylsulfonate, the influence of the concentration on the inhibitory activity was studied.
(§4) The concentration of each evaluation compound in the measurement reagent (chromogenic substrate solution) was adjusted as follows.
(§5) A 7 U/L TRACP-5b solution and a 7 U/L TRACP-5a solution were used in the test using a reagent containing dextran sulfate sodium (5K) and dextran sulfate sodium (50K); a 7 U/L TRACP-5b solution and a 7 U/L or 8 U/L TRACP-5a solution were used in the test using a reagent containing sodium polyvinyl sulfonate (5K); and a 7 U/L TRACP-5b solution and an 8 U/L TRACP-5a solution were used in the test using a reagent containing sodium vinylsulfonate.
(§6) The chromogenic substrate solution having the same composition as in Test 1 was used, except that the concentration of each evaluation compound was as described above. The measurement method was carried out in the same procedure as in Test 1.

[2] = molecular target: T1, TRACP-5a (Homo sapiens, UniProt P13686); assay: as above; conditions: Table 8; for Activity value 5a: 8 U/L TRACP-5a solution, control 8.0; for 5b/5a ratio: control 0.9
T1 construct: purchased R&D Systems, Inc
T1 sequence (P13686 22-325): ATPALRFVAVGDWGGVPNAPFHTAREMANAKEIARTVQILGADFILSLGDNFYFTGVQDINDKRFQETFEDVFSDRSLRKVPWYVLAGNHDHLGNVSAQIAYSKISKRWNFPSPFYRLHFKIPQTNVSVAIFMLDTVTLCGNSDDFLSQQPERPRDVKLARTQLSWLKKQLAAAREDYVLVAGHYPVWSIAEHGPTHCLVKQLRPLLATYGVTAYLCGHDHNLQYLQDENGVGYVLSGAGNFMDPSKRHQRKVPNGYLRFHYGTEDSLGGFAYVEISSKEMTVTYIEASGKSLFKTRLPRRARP
Experimental: as §1, §2, §3, §4, §5, §6

[3] = test system: TRACP-5b; assay: Test 1: evaluation of TRACP-5a inhibitor in an enzyme method; conditions: Table 4; 0.1 mass % evaluation compound in chromogenic substrate solution; 7 U/L TRACP-5b solution; control without compound 6.9
Experimental: The amount of absorbance change per minute (the amount of absorbance change per unit time during the enzymatic reaction) was determined from the absorbance change between both the time points.
as §2

[4] = test system: TRACP-5b; assay: Evaluation of TRACP-5a inhibitor in EIA method; conditions: Table 14, antibody-immobilized plate, 0.1 mass % evaluation compound in chromogenic substrate solution, 7 U/L TRACP-5b solution, control without compound 0.2477
Experimental: (§7) A TRACP-5b monoclonal antibody (Accession Number IPOD FERM BP-7890) was diluted with PBS (8 mM disodium hydrogenphosphate, 1.5 mM sodium dihydrogenphosphate, 2.7 mM KCl, and 137 mM NaCl; pH 7.5) to 10 µg/mL, and 100 μL of the antibody-containing solution was added to each well of an ELISA plate (manufactured by Thermo Fisher Scientific, Inc., product number 468667). The solution was left to stand overnight under refrigeration, then washed 3 times with 300 μL of TBS-T (50 mM Tris-HCl, 150 mM NaCl, and 0.05% Tween 20; pH 7.5), then 300 μL of TBS containing 1.5% BSA was added, and the mixture was left to stand overnight under refrigeration.
(§8) After the TBS containing 1.5% BSA was removed from the prepared antibody-immobilized plate, 100 μL of TBS (50 mM Tris-HCl and 150 mM NaCl, pH 7.5) and 50 μL of the 7 U/L TRACP-5b solution or the 7 U/L TRACP-5a solution were added to each well, and the mixture was reacted for 1 hour under stirring (25° C., 700 rpm). After washing 3 times with 300 µL of TBS-T, 100 μL of a chromogenic substrate solution (5 mM 2-chloro-4-nitrophenyl phosphate, 109 mM MES, and 40 mM sodium tartrate; pH 6.6) to which the evaluation compound was added at a concentration of 0.1 mass % was added to each well, and the plate was left to stand at 37° C. for 1 hour. Thereafter, 50 μL of 0.5 N NaOH was added, and the absorbance (primary wavelength: 405 nm, secondary wavelength: 490 nm) was measured with a plate reader.

[5] = molecular target: T1, TRACP-5a; assay: Evaluation of TRACP-5a inhibitor in EIA method; conditions: for 5b/5a ratio: Table 14, 0.1 mass % evaluation compound in chromogenic substrate solution, control without compound 1.3; for Abs. 405 nm 5a: Table 14, antibody-immobilized plate, 0.1 mass % evaluation compound in chromogenic substrate solution, 7 U/L TRACP-5a solution, control without compound 0.1956
Experimental: as §7, §8

[6] = molecular target: T1, TRACP-5a; assay: Test 1: evaluation of TRACP-5a inhibitor in an enzyme method; conditions: Table 4, 0.1 mass % evaluation compound in chromogenic substrate solution; for Activity value 5a: 7 U/L TRACP-5a solution, control without compound 6.5; for 5b/5a ratio: control without compound 1.1
Experimental: TRACP-5b manufactured by Nittobo Medical Co., Ltd. and TRACP-5a manufactured by R&D Systems, Inc. were diluted with a 22 mM MES buffer (pH 5.0) to prepare a 7 U/L TRACP-5b solution and a 7 U/L TRACP-5a solution, and the solutions were used as measurement samples. In the measurement with sodium hyaluronate, a 7 U/L TRACP-5b solution and an 8 U/L TRACP-5a solution prepared in the same manner were used.
A chromogenic substrate solution having the following composition was used. • 5 mM 2-chloro-4-nitrophenyl phosphate • 109 mM MES • 40 mM sodium tartrate • 0.1 mass % evaluation compound • pH 6.6
as §1, §2
The measurement using sodium hyaluronate was performed in a separate batch from that with other evaluation compounds.

Compound	Activity value 5b ([1]; VSA Na 0.0200 mass %) [U/L]	Activity value 5a ([2]; VSA Na 0.0200 mass %) [U/L]	5b/5a ratio ([2]; VSA Na 0.0200 mass %)	Activity value 5b [3] [U/L]	Abs. 405 nm 5b [4]	5b/5a ratio [5]	Abs. 405 nm 5a [5]	Activity value 5a [6] [U/L]	5b/5a ratio [6]	Activity value 5b ([1]; VSA Na 0.0100 mass %) [U/L]	Activity value 5b ([1]; VSA Na 0.0150 mass %) [U/L]	Activity value 5a ([2]; VSA Na 0.0100 mass %) [U/L]	5b/5a ratio ([2]; VSA Na 0.0100 mass %)	Activity value 5a ([2]; VSA Na 0.0150 mass %) [U/L]	5b/5a ratio ([2]; VSA Na 0.0150 mass %)
Sodium vinylsulfonate [Example 5]	6.9	4.5	1.5												
C=CS(=O)(=O)[O-].[Na+] [Example 5, Sodium vinylsulfonate]				6.5	0.2600	3.4	0.0775	1.6	4.1	6.8	6.8	6.8	1.0	5.6	1.2
β-cyclodextrin sodium sulfate [Comparative example 1, reference compound]				6.7	0.1971	2.3	0.0853	2.3	2.9						
